According to US11559498B2, “Compositions and methods for in vivo lung and blood SNO repletion” (UNIVERSITY HOSPITALS CLEVELAND MEDICAL CENTER, priority 2020, dated 2023):

What was measured:
SNO-Hb = SNO-Hb levels in the blood of humans after inhalation of ENO; format: in vivo; details: FIG. 1B
Text: (§1) 3. Humans Each subject was fitted with an on-demand nonrebreather mask to regulate oxygen (FiO2) and ENO delivery. ENO was blended at 1-100 ppm.
(§2) Photolysis-chemiluminescence was used to quantify RBC SNO-Hb levels before and during ENO exposure. Blood was obtained through arterial lines and venipuncture. Method of sample preparation and measurement is as described in Hausladen (ref: Hausladen A et al. Assessment of nitric oxide signals by triiodide chemiluminescence. Proc. Natl. Acad. Sci. U.S.A 104, 2157-2162 (2007)).

[1] = metHb during ventilation with ENO; format: in vivo, pigs/dogs; details: 100 ppm ENO (maximum dose), ventilated large animals
Text: (§3) 2. Large animals (pigs/dogs) are ventilated. ENO was mixed into the ventilation circuit using a custom-made gas-blending device (1-100 ppm). One hundred ppm ENO was selected as the maximum dose based on the amounts of metHb (<5%).

GSNO levels in the lungs = GSNO levels in the lungs after inhalation of ENO; format: in vivo; details: FIG. 1A
Text: (§4) 1. Mice are either placed in chambers where ambient oxygen and ENO levels (1-100 ppm) are controlled, or mice are ventilated as in 2. below.
as §3, §1

isolated human kidneys = test: Isolated human kidneys treated with ENO
lung inflammation (BALF) = test: Hyperoxic injury-induced lung inflammation in mice; format: in vivo
Description: as §4
Bronchoalveolar lavage fluid (BAL), cell and protein content, differential cell analysis, lung fixation and histological sectioning, were performed as previously described (Groves, Am. J. Respir Cell Mol. Biol. 47, 776-783 (2012); Lien Van Hoecke J Vis Exp. 2017; (123): 55398)).

SNO-Hb and muscle StO2 = test: Hypoxic humans dosed with ENO: muscle oxygenation and SNO-Hb; format: in vivo; details: at study completion, FiO2 fixed at 0.12, FIG. 2
Text: as §1, §2

[2] = test system: porcine circovirus type 2 (PCV2); test: PCV2 infection and replication; format: cell-based
lung injury = test: Rat ischemia/reperfusion (IR) preparation, lung injury; format: in vivo
[3] = test system: airway hyper-responsiveness; test: Mouse airway hyper-responsiveness following hyperoxia; format: in vivo; details: hyperoxia 60% oxygen for 21 days, FIG. 6
[4] = cited from earlier work

With `CCON=O` [ENO, ethyl nitrite] the “SNO-Hb levels in the blood” value (SNO-Hb) was “significantly increases”, the “amounts of metHb” value [1] was less than 5% and the “GSNO levels in the lungs over inhaled NO” value (GSNO levels in the lungs; inhalation of ENO compared with inhaled NO) was “several fold”. The “GSNO levels in the lungs” value (GSNO levels in the lungs; inhalation of ENO) was “significantly increases”, the “tissue SNO levels” value (isolated human kidneys; FIG. 4A) was “increased” and the “release of IL-10” value (isolated human kidneys; FIG. 4B) was “increased”. The “level of IL-10” value (isolated human kidneys; FIG. 4C) was “increased”, the “lung (BALF) leukocyte concentrations” value (lung inflammation (BALF); ENO for 8 days, FIG. 3A) was “decreased” and the “lung (BALF) neutrophil concentrations” value (lung inflammation (BALF); ENO for 8 days, FIG. 3A) was “decreased”. For the same compound, the “accumulation of cytokine-induced neutrophil chemoattractant-1” value (lung inflammation (BALF); FIG. 3B) was “attenuated”, the “expression of cytokine-induced neutrophil chemoattractant-1” value (lung inflammation (BALF); FIG. 3C) was “attenuated” and the SNO-Hb levels (SNO-Hb and muscle StO2) was “doubled”. The “muscle StO2 (near infrared spectroscopy)” value (SNO-Hb and muscle StO2) was “at normoxic (prehypoxic) levels”.

In the case of `N[C@@H](CCC(=O)N[C@@H](CSN=O)C(=O)NCC(=O)O)C(=O)O` [GSNO], the “infection of PCV2” value ([2]; FIG. 7A) is reported as “significantly reduces”, the “replication of PCV2” value ([2]; FIG. 7B) is reported as “significantly reduces” and the lung injury (lung injury; FIG. 5A) is reported as “significantly reduced”. For the same compound, the “expression of iNOS” value (lung injury; FIG. 5B) was “significantly reduced”, the “expression of NF-kappaB” value (lung injury; FIG. 5C) was “significantly reduced” and the airway hyper-responsiveness ([3]; inhalation) was “attenuated”.

For `Cc1cc(C(N)=O)ccc1-n1c(CCC(=O)O)ccc1-c1ccc(-n2ccnc2)cc1` [N6022], the airway hyper-responsiveness ([3]; ip administration) was “attenuated”.

For `CC(=O)N[C@@H](CS)C(=O)O` [N-acetylcysteine], the “solubility in chloroform and ether” value ([4]; chloroform and ether) is listed as “practically insoluble” and the “solubility in water and alcohol” value ([4]; water and alcohol) is listed as “soluble”.
